Measurements as given in US20110300566A1, “METHODS FOR SCREENING FOR HISTONE DEACETYLASE ACTIVITY AND FOR IDENTIFYING HISTONE DEACETYLASE INHIBITORS” (priority 2002, published 2011).
“Also recorded” adds a separate entry of the source.

Key:
[1] = Solubility of substrate in assay buffer; assay type: physicochemical; details: HDAC assay buffer
HDLP = test: Histone deacetylase fluorescent activity assay (7AC hydrolysis); assay type: biochemical, Aquifex aeolicus; details: 7AC as substrate; 330 nM GST-HDLP; pH 8.0
Method: (§1) As depicted in FIG. 1, the inventive fluorescence-based HDAC assay monitors the hydrolysis of 7AC to 7-hydroxycoumarin, or of ACC to 7-hydroxycoumarin-3-carboxylic acid, at λex=332 nm and λem=447 nm. […] Utilization rations for each enzyme with the 7AC substrate were calculated. For Hos3, the utilization ratio was 1.9122×10^−4 s^−1, and 1274.8 M^−1 s^−1 when normalized by enzyme concentration. For HDLP, the utilization ratio was 2.0375×10^−4 s^−1, and 612.8 M^−1 s^−1 when normalized by enzyme concentration. For HDAC2, the utilization ratio was 1.2526×10^−5 s^−1, and 35.8 M^−1 s^−1 when normalized by enzyme concentration, as shown in Table 1.
(§2) HDAC activity assays were performed in HDAC assay buffer (20 mM Tris, pH 8.0, 500 mM NaCl, 1 mM MnCl2) to a final reaction volume of 1 ml in quartz spectrophotometer cuvettes. Fluorescence spectrophotometry was used to monitor ACC or 7AC hydrolysis (λex=332 nm, λem=447 nm). Internal fluorescence intensity calibrations were obtained using quinine sulfate as known in the art. ACC or 7AC substrate (solubilized in 100% DMSO) was added in the appropriate concentrations to the assay buffer (1% final concentration of DMSO) and the basal rate of hydrolysis was recorded. After 90 seconds, 150 nM Hos3 enzyme was added and the reaction was allowed to proceed for 600 seconds. […] Utilization ratios for Hos3 were calculated based on the adjusted initial rates. […]

Hos3 [2] = biological target: T1, Hos3 (Saccharomyces cerevisiae, UniProt Q02959); test: as above; assay type: biochemical; details: 7AC as substrate; 150 nM Hos3; pH 8.0
T1 construct: made in house; host or cells: E. coli BL21(DE3)
T1 sequence (Q02959 1-697): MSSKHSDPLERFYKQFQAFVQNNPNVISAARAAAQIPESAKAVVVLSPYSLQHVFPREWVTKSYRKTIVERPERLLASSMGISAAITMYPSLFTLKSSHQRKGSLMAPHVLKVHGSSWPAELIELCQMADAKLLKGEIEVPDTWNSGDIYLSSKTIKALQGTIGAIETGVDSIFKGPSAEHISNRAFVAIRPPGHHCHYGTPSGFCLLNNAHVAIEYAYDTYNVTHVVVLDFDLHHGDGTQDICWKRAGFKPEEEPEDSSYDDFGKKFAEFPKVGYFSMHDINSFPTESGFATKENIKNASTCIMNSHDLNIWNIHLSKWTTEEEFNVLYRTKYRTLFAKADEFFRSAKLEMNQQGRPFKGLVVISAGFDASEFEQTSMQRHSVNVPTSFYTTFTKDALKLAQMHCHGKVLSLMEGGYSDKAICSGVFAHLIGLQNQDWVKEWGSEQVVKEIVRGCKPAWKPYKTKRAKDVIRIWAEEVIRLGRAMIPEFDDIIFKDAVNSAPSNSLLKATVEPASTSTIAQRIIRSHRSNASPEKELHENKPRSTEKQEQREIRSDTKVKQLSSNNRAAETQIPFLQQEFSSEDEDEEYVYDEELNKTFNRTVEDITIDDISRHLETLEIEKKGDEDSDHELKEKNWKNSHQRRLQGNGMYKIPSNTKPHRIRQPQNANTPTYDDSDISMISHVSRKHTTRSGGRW
Method: as §1, §2

[3] = Background (basal) rate of substrate hydrolysis in assay buffer; assay type: physicochemical; details: assay buffer at pH 8.0; compared with ACC
Method: as §1, §2

HDAC2 = biological target: T2, HDAC2 (Homo sapiens, UniProt Q92769); test: Histone deacetylase fluorescent activity assay (7AC hydrolysis); assay type: biochemical; details: 7AC as substrate; 350 nM GST-HDAC2; pH 8.0
T2 construct: made in house; host or cells: E. coli BL21(DE3)
Method: as §1, §2

Hos3 [4] = biological target: T1, Hos3; test: HDAC inhibitor studies (competition with 7AC substrate, fluorescent assay); assay type: biochemical; details: for IC50: Hos3 (150 nM) with 7AC (75 mM) substrate; for Mode of Inhibition: Hos3, 7AC substrate, double-reciprocal plots, IC50 vs substrate concentration for TSA
Method: Characterization of the Mechanism of Inhibition. Inhibitor studies were conducted using the 7AC substrate and the fluorescent histone deacetylase activity assay.
Competition experiments were performed in HDAC assay buffer (20 mM Tris, pH 8.0, 500 mM NaCl, 1 mM MnCl2) to a final reaction volume of 1 ml. Trichostatin A was solubilized in 100% DMSO, yielding a final concentration of 2% DMSO in this reaction. […] The final DMSO concentration in these reactions was 1%. 7AC substrate and inhibitor were added in the appropriate concentrations to the assay buffer and the basal rate of hydrolysis was recorded. Hos3 enzyme (150 nM) was added after 90 seconds and the reaction was allowed to proceed for 600 seconds. Initial rate data was transformed into appropriate rates and dose response plots were generated. IC50 values were calculated using the program Kaleidagraph with equation 4: […]
where vi is the initial velocity in the presence of inhibitor, vo, is the initial velocity in the absence of inhibitor, and [I] is the concentration of inhibitor. Ki values were determined by Dixon plots […]. The modes of inhibition were determined by double-reciprocal or Lineweaver-Burk plots, where 1/v is plotted as a function of 1/[S], using the programs of Cleland.

Hos3 [5] = biological target: T1, Hos3; test: as above; assay type: biochemical; details: Hos3 (150 nM), slope of Henderson plot
[6] = substrate: CC(=O)Oc1ccc([N+](=O)[O-])cc1; test: UV-based histone deacetylase activity assay; assay type: biochemical, Saccharomyces cerevisiae; details: other: MBP-Hos3; UV at 410 nm
Source text: The substrates 7AC and ACC can also be effectively utilized in a UV assay. The substrate absorbs from 250-340 nm, while the product has a maximal absorbance at 375 nm. So substrate hydrolysis/product formation can be monitored by the increase in absorbance at 375 nm. […] Para-nitrophenylacetate can also be used to assay HDAC activity. Upon acetate hydrolysis, the para-nitrophenylacetate liberates the colored p-nitrophenol chromophore; this reaction can be monitored on the UV at 410 nm.
HDAC activity assays were performed in HDAC Assay Buffer to a final reaction volume of 1 ml in quartz cuvettes. UV/Vis spectrophotometer was used to monitor the rate of 7AC hydrolysis. The 7AC substrate absorbs from 250-340 nm, while the product, 7-hydroxycoumarin, has a maximal absorbance at 375 nm. Reactions were initiated with substrate and allowed to proceed for 300 seconds, while monitoring the increase in absorbance at 375 nm. Para-nitrophenylacetate was also used to assay HDAC activity. Upon acetate hydrolysis, the para-nitrophenylacetate liberated the colored p-nitrophenol chromophore; this reaction was monitored on the UV at 410 nm. Initial rates and utilization ratios were calculated as described above.

T2 sequence (Q92769 whole entry): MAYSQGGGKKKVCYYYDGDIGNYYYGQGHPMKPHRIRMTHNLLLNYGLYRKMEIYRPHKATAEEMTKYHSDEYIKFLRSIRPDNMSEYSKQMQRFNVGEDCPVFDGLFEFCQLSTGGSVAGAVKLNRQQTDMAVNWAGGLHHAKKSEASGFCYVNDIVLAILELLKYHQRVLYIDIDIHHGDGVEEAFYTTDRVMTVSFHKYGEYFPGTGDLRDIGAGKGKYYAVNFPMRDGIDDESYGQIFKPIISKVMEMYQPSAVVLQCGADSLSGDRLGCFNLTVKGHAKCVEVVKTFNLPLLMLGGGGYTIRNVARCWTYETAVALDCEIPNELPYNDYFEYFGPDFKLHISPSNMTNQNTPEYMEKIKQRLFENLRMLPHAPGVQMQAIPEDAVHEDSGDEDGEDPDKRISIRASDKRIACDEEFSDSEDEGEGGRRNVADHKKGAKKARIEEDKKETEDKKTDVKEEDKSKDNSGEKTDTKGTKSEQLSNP

## CC(=O)Oc1ccc2ccc(=O)oc2c1 [7AC, 7-Acetoxycoumarin]
[1]; aqueous buffer
  solubility: ≤ 1 mM
HDLP
  V/K (utilization ratio): 0.00020375 s⁻¹
  V/[Et]/K (utilization ratio normalized by enzyme concentration): 612.8 M⁻¹ s⁻¹
Hos3 [2]
  V/K (utilization ratio): 0.00019122 s⁻¹
  V/[Et]/K (utilization ratio normalized by enzyme concentration): 1274.8 M⁻¹ s⁻¹
[3]
  Background rate of hydrolysis: lower background rate of hydrolysis
HDAC2
  V/K (utilization ratio): 1.2526e-05 s⁻¹
  V/[Et]/K (utilization ratio normalized by enzyme concentration): 35.8 M⁻¹ s⁻¹

## CCCC(=O)[O-].[Na+] [NaB, sodium butyrate]
Hos3 [4]
  IC50: 13.4 mM
  Mode of Inhibition: Mixed-
Hos3 [4]; Hos3 (150 nM), 7AC substrate, Dixon plot
  Ki: 12 mM
Hos3 [4]; listed as Sodium butyrate
  Mode of Inhibition: mixed-type inhibition
Hos3 [4]; listed as sodium butyrate
  Mode of Inhibition: mixed-competitive inhibitor

## CC(=O)Oc1ccc([N+](=O)[O-])cc1 [Para-nitrophenylacetate, 4-nitrophenylacetate]
[1]
  Solubility limitation: subject to solubility limitations that prevent complete saturation of the enzyme

## CC(/C=C/C(=O)NO)=C\[C@@H](C)C(=O)c1ccc(N(C)C)cc1 [TSA, Trichostatin A]
Hos3 [5]
  Ki: 81 nM
Hos3 [4]
  IC50: 0.000127 mM
  Mode of Inhibition: Tight-binding
Hos3 [4]; listed as Trichostatin A
  Mode of Inhibition: tight-binding competitive inhibitor; also recorded: tight-binding, competitive inhibitor; also recorded: tight binding competitive inhibition

B1: Hos3 (Saccharomyces cerevisiae S288C) (protein)
chain: T1 sequence (Q02959 1-697)
notes: made in house; host or cells: E. coli BL21(DE3)
[6]
  Km: 8.3 mM
